Assay results reported in patent US4927919A, “Chartreusin derivatives and salts thereof” (Ishihara Sangyo Kaisha, Ltd., priority 1985, dated 1990).
Counter-ions that a name gives are not always drawn. Like-named read-outs stand apart in the source and are kept apart here.

Key:
[1] = tested on: P-388 leukemia cells; assay: Antitumor activity against P-388 leukemia cells (i.p. implanted, i.v. drug); format: in vivo, BDF1 mice; conditions: Mus musculus, P388, iv, 720 h, read-out: T/C of MST; for response vs control in vivo at 20 mg/kg/day: dose b': 20 mg/kg/d × 2 (days 1, 5); for response vs control in vivo at 40 mg/kg/day: dose c': 40 mg/kg/d × 2 (days 1, 5); for response vs control in vivo at 80 mg/kg: dose f: 80 mg/kg/d × 3 (days 1, 5, 9)
Protocol: BDF1 mice were implanted intraperitoneally with P-388 leukemia cells at a rate of 1×10^6 cells/mouse, and each drug to be tested was administered intravenously on the first, fifth and ninth days, or on the first and fifth days after the implantation. […] The T/C (%) was calculated based on the following equation: [formula]
The drugs tested were as follows: solutions prepared by dissolving each of compound Nos. 34, 36 and 43 to 46 in physiological saline; suspension or solutions prepared by dissolving each of compound Nos. 35, 38 and 49 to 55 in dimethylacetamide, followed by adding thereto a small amount of a surface active agent (e.g., Tween-80) and then physiological saline; and suspension or solutions prepared by mixing each of the other compounds and a small amount of a surface active agent (e.g., Tween-80), followed by adding thereto physiological saline.

[2] = Acute toxicity (LD50, single intravenous administration); design: species or system day mice; conditions: mouse, in vivo, mice, single i.v.
Text: In Table 15 are shown acute toxicity values (LD50, mg/kg) in day mice in the case of intravenously administering (once) each of the compounds of this invention in the form of preparations shown in the Preparation Examples shown in Table 16.

[3] = i.v., dose c: 40 mg/kg/d × 3 (days 1, 5, 9), 30-day observation
[4] = i.v., dose b: 20 mg/kg/d × 3 (days 1, 5, 9), 30-day observation

SMILES | response vs control in vivo at 40 mg/kg [1, 3] | response vs control in vivo at 80 mg/kg ([1]; i.v., 30-day observation) | response vs control in vivo at 20 mg/kg [1, 4] | LD50 ([2]; Preparation Example 2) | further results
COC1C(O)C(C)OC(OC2C(Oc3cccc4c(OC(=O)c5ccc[nH]5)c5c(=O)oc6ccc(C)c7c(=O)oc(c34)c5c67)OC(C)C3OC(c4ccccc4)OC32)C1O (centres unmarked) [Compound 1] | – | – | – | – | response vs control in vivo at 20 mg/kg/day ([1]; i.v., 30-day observation): 154%; response vs control in vivo at 40 mg/kg/day ([1]; i.v., 30-day observation): 188%; LD50 ([2]; Preparation Example 1): ≥ 40 mg/kg
COC1C(O)C(C)OC(OC2C(Oc3cccc4c(OC(=O)C5CCCN5C(=O)OCc5ccccc5)c5c(=O)oc6ccc(C)c7c(=O)oc(c34)c5c67)OC(C)C3OC(C)(C)OC32)C1O (centres unmarked) [Compound 3, 6-O-(N-carbobenzyloxy-prolyl)-3',4'-O-isopropylidene-chartreusin] | 139% | 195% | – | – | LD50 ([2]; Preparation Example 3): ≥ 160 mg/kg
COC1C(O)C(C)OC(OC2C(Oc3cccc4c(OC(=O)C5CCCN5C(=O)CNC(=O)CNC(=O)OCc5ccccc5)c5c(=O)oc6ccc(C)c7c(=O)oc(c34)c5c67)OC(C)C3OC(c4ccccc4)OC32)C1O (centres unmarked) [Compound 4] | – | – | 138% | ≥ 20 mg/kg | –
COC1C(O)C(C)OC(OC2C(Oc3cccc4c(OC(=O)c5ccco5)c5c(=O)oc6ccc(C)c7c(=O)oc(c34)c5c67)OC(C)C3OC(C)(C)OC32)C1O (centres unmarked) [Compound 5] | – | 217% | – | – | LD50 ([2]; Preparation Example 4): ≥ 80 mg/kg
COC1C(O)C(C)OC(OC2C(Oc3cccc4c(OC(=O)c5ccoc5)c5c(=O)oc6ccc(C)c7c(=O)oc(c34)c5c67)OC(C)C3OC(C)(C)OC32)C1O (centres unmarked) [Compound 7] | 149% | 194% | – | – | LD50 ([2]; Preparation Example 3): ≥ 80 mg/kg
COC1C(O)C(C)OC(OC2C(Oc3cccc4c(OC(=O)c5ccc(Br)o5)c5c(=O)oc6ccc(C)c7c(=O)oc(c34)c5c67)OC(C)C3OC(C)(C)OC32)C1O (centres unmarked) [Compound 8, 6-O-{2-(5-bromofuryl)-carbonyl}-3',4'-O-isopropylidene-chartreusin] | – | 178% | – | – | LD50 ([2]; Preparation Example 3): ≥ 80 mg/kg
COC1C(O)C(C)OC(OC2C(Oc3cccc4c(OC(=O)C=Cc5ccco5)c5c(=O)oc6ccc(C)c7c(=O)oc(c34)c5c67)OC(C)C3OC(C)(C)OC32)C1O (centres unmarked) [Compound 9] | – | 194% | – | – | LD50 ([2]; Preparation Example 3): ≥ 80 mg/kg
COC1C(O)C(C)OC(OC2C(Oc3cccc4c(OC(=O)c5ccc(C)s5)c5c(=O)oc6ccc(C)c7c(=O)oc(c34)c5c67)OC(C)C3OC(C)(C)OC32)C1O (centres unmarked) [Compound 12] | – | 194% | – | – | LD50 ([2]; Preparation Example 3): ≥ 80 mg/kg
COC1C(O)C(C)OC(OC2C(Oc3cccc4c(OC(=O)Cc5cccs5)c5c(=O)oc6ccc(C)c7c(=O)oc(c34)c5c67)OC(C)C3OC(C)(C)OC32)C1O (centres unmarked) [Compound 13] | 134% | 182% | – | – | LD50 ([2]; Preparation Example 3): ≥ 80 mg/kg
COC1C(O)C(C)OC(OC2C(Oc3cccc4c(OC(=O)CCCCC5CCSS5)c5c(=O)oc6ccc(C)c7c(=O)oc(c34)c5c67)OC(C)C3OC(c4ccccc4)OC32)C1O (centres unmarked) [Compound 15] | 201% | – | 153% | ≥ 40 mg/kg | –
COC1C(O)C(C)OC(OC2C(Oc3cccc4c(OC(=O)C=Cc5c[nH]cn5)c5c(=O)oc6ccc(C)c7c(=O)oc(c34)c5c67)OC(C)C3OC(c4ccccc4)OC32)C1O (centres unmarked) [Compound 16] | 148% | – | – | ≥ 40 mg/kg | –
COC1C(O)C(C)OC(OC2C(Oc3cccc4c(OC(=O)c5ccc6[nH]ccc6c5)c5c(=O)oc6ccc(C)c7c(=O)oc(c34)c5c67)OC(C)C3OC(c4ccccc4)OC32)C1O (centres unmarked) [Compound 18] | 242% | – | 167% | ≥ 40 mg/kg | –
COc1ccc2[nH]c(C(=O)Oc3c4cccc(OC5OC(C)C6OC(c7ccccc7)OC6C5OC5OC(C)C(O)C(OC)C5O)c4c4oc(=O)c5c(C)ccc6oc(=O)c3c4c65)cc2c1 (centres unmarked) [Compound 19, 6-O-{2-(5-methoxyindolyl)-carbonyl}-3',4'-O-benzylidene-chartreusin] | 165% | – | 131% | ≥ 40 mg/kg | –
COC1C(O)C(C)OC(OC2C(Oc3cccc4c(OC(=O)Cc5c[nH]c6ccccc56)c5c(=O)oc6ccc(C)c7c(=O)oc(c34)c5c67)OC(C)C3OC(c4ccccc4)OC32)C1O (centres unmarked) [Compound 20] | 286% | – | 148% | ≥ 40 mg/kg | –
COC1C(O)C(C)OC(OC2C(Oc3cccc4c(OC(=O)C=Cc5ccc6c(c5)OCO6)c5c(=O)oc6ccc(C)c7c(=O)oc(c34)c5c67)OC(C)C3OC(c4ccccc4)OC32)C1O (centres unmarked) [Compound 21] | 176% | – | 131% | ≥ 40 mg/kg | –
COC1C(O)C(C)OC(OC2C(Oc3cccc4c(OC(=O)CCc5ccc6c(c5)OCO6)c5c(=O)oc6ccc(C)c7c(=O)oc(c34)c5c67)OC(C)C3OC(c4ccccc4)OC32)C1O (centres unmarked) [Compound 22] | 222% | – | 142% | ≥ 40 mg/kg | –
COC1C(O)C(C)OC(OC2C(Oc3cccc4c(OC(=O)C5CCN(C(=O)C(F)(F)F)CC5)c5c(=O)oc6ccc(C)c7c(=O)oc(c34)c5c67)OC(C)C3OC(C)(C)OC32)C1O (centres unmarked) [Compound 23] | 127% | – | – | – | LD50 ([2]; Preparation Example 3): ≥ 40 mg/kg
COC1C(O)C(C)OC(OC2C(Oc3cccc4c(OC(=O)C5CCCN(C)C5)c5c(=O)oc6ccc(C)c7c(=O)oc(c34)c5c67)OC(C)C3OC(c4ccccc4)OC32)C1O (centres unmarked) [Compound 24] | – | – | – | ≥ 40 mg/kg | response vs control in vivo at 20 mg/kg/day ([1]; i.v., 30-day observation): 152%; response vs control in vivo at 40 mg/kg/day ([1]; i.v., 30-day observation): 186%
COC1C(O)C(C)OC(OC2C(Oc3cccc4c(OC(=O)C5CC(OC(C)=O)CC(C)(C)O5)c5c(=O)oc6ccc(C)c7c(=O)oc(c34)c5c67)OC(C)C3OC(c4ccccc4)OC32)C1O (centres unmarked) [Compound 26] | – | – | – | ≥ 20 mg/kg | –
COC1C(O)C(C)OC(OC2C(Oc3cccc4c(OC(=O)c5ccc6ccccc6n5)c5c(=O)oc6ccc(C)c7c(=O)oc(c34)c5c67)OC(C)C3OC(C)(C)OC32)C1O (centres unmarked) [Compound 27] | 142% | – | – | – | LD50 ([2]; Preparation Example 5): ≥ 80 mg/kg
COC1C(O)C(C)OC(OC2C(Oc3cccc4c(OC(=O)c5cc(-c6ccccc6)nc6ccccc56)c5c(=O)oc6ccc(C)c7c(=O)oc(c34)c5c67)OC(C)C3OC(c4ccccc4)OC32)C1O (centres unmarked) [Compound 28] | – | 192% | 197% | – | LD50 ([2]; Preparation Example 1): ≥ 20 mg/kg
COC1C(O)C(C)OC(OC2C(Oc3cccc4c(OC(=O)Cc5ccc6c(c5)OCO6)c5c(=O)oc6ccc(C)c7c(=O)oc(c34)c5c67)OC(C)C3OC(c4ccccc4)OC32)C1O (centres unmarked) [Compound 29] | – | – | – | ≥ 40 mg/kg | response vs control in vivo at 20 mg/kg [1]: 201%; response vs control in vivo at 40 mg/kg [1]: 255%
COC1C(O)C(C)OC(OC2C(Oc3cccc4c(OC(=O)c5cc6ccccc6[nH]5)c5c(=O)oc6ccc(C)c7c(=O)oc(c34)c5c67)OC(C)C3OC(c4cccc(F)c4)OC32)C1O (centres unmarked) [Compound 30, 6-O-(2-indolyl-carbonyl)-3',4'-O-(m-fluorobenzylidene)-chartreusin] | – | 142% | – | ≥ 80 mg/kg | –
COC1C(O)C(C)OC(OC2C(Oc3cccc4c(OC(=O)c5ccc[nH]5)c5c(=O)oc6ccc(C)c7c(=O)oc(c34)c5c67)OC(C)C3OC(c4cccc(Br)c4)OC32)C1O (centres unmarked) [Compound 31] | 128% | – | – | – | LD50 ([2]; Preparation Example 1): ≥ 40 mg/kg
COC1C(O)C(C)OC(OC2C(Oc3cccc4c(OC(=O)C5CC(=O)CC(C)(C)O5)c5c(=O)oc6ccc(C)c7c(=O)oc(c34)c5c67)OC(C)C3OC(c4ccccc4)OC32)C1O (centres unmarked) [Compound 32] | – | – | – | ≥ 40 mg/kg | response vs control in vivo at 20 mg/kg/day ([1]; i.v., 30-day observation): 185%; response vs control in vivo at 40 mg/kg/day ([1]; i.v., 30-day observation): 213%
COC1C(N)C(C)OC(OC2C(Oc3cccc4c(OC(=O)C(C)CN)c5c(=O)oc6ccc(C)c7c(=O)oc(c34)c5c67)OC(C)C3OC(c4ccccc4)OC32)C1O (stereo not drawn) [Compound 34, 6-O-(β-amino-isobutyryl)-3',4'-benzylidene-4"-epiamino-4"-deoxy-chartreusin dihydrochloride] | 219% | – | 140% | – | LD50 ([2]; Preparation Example 8): ≥ 40 mg/kg
CCOCCC(=O)Oc1c2cccc(OC3OC(C)C4OC(c5ccccc5)OC4C3OC3OC(C)C(N)C(OC)C3O)c2c2oc(=O)c3c(C)ccc4oc(=O)c1c2c43 (centres unmarked) [Compound 35] | 244% | – | 188% | – | LD50 ([2]; Preparation Example 6): ≥ 40 mg/kg
COC1C(N)C(C)OC(OC2C(Oc3cccc4c(OC(=O)CCN5CCCC5)c5c(=O)oc6ccc(C)c7c(=O)oc(c34)c5c67)OC(C)C3OC(c4ccccc4)OC32)C1O (stereo not drawn) [Compound 36, 6-O-(β-1-pyrrolidinylpropionyl)-3',4'-O-benzylidene-4"-epiamino-4"-deoxy-chartreusin dihydrochloride] | – | – | 168% | – | LD50 ([2]; Preparation Example 8): ≥ 20 mg/kg
